# According to patent publication US12458651B2, “Compounds and their uses for alleviating menopause-associated symptoms” (ESTETRA SRL, priority 2018, dated 2025):
# Read-outs that look alike come from different tables or passages of the source.
# Tests used:
# [1] = Triglycerides level at 15 mg and 20 mg daily doses; type: in vivo; conditions: 20 mg daily dose in place of 15 mg daily dose
# Experimental: In order to better assess the potential for increasing the daily dose beyond the minimum effective dose of 15 mg daily, a number of parameters were followed in a study where estetrol was administered at the increased dose of 20 mg per day.
# 1. Triglycerides Level (mmol/L)
# [2] = test system: postmenopausal women; conditions: 2 mg estetrol per day for 28 days; cited from earlier work
# [3] = test system: C-terminal telopeptide (CTX-1); experiment: C-terminal telopeptide (CTX-1), marker of bone resorption; type: in vivo
# [4] = test system: post-menopausal women; experiment: Dose-finding study: hot flush weekly weighted score; type: in vivo
# Experimental: Further, the terms “Hot Flush Weekly Weighted Score”, as used herein, corresponds to a score taking into account frequency and severity which is calculated by using the severity score (as calculated above): [(1×No. of mild VMS)+(2×No. of moderate VMS)+(3×No. of severe VMS)] during a 7 day period.
# Such a weighted score was for example used by Notelovitz et al. (“Initial 17β-Estradiol Dose for Treating Vasomotor Symptoms”; Obstetrics and Gynaecology, Vol. 95(5), May 2000, p. 726-731). This score was used to generate the data included in Example 1 further below, under section A. c) “Hot Flush Weekly Weighted Score”.
# [5] = test system: postmenopausal women; conditions: cited from earlier work
# [6] = test system: post-menopausal women; experiment: GSM symptom: vaginal and/or vulvar irritation/itching; type: in vivo
# Experimental: (§1) Change from baseline to week 12 in the following GSM symptoms (VVA subject self-assessment) were recorded: • a) Vaginal dryness (sensation of dryness or burning in the vagina; none=0 mild=1, moderate=2 or severe=3):
# • b) Vaginal and/or vulvar irritation/itching (sensation of abnormal irritation or sensitive condition in the vagina; none=0, mild=1, moderate=2 or severe=3): […]
# [7] = test system: post-menopausal women; experiment: Adverse events (AEs, TEAEs) in the dose-finding study; type: in vivo
# From the text: This is confirmed by the following statistical analysis. Using a Poisson regression model with a random effect for the patient and treatment group as a covariate to model the count of TEAEs in the different treatment groups, it can be shown that there is no statistical difference between the treatment groups (p value of 0.099). Second, a chi-square test was used to assess if the prevalence of patients reporting TEAEs in each treatment group was similar. No statistical difference was found between the treatment groups (p value of 0.575).
# [8] = test system: post-menopausal women; experiment: GSM symptom: dysuria; type: in vivo
# Experimental: as §1
# • c) Dysuria (sensation of pain or difficulty in urinating; none=0, mild=1, moderate=2 or severe=3): […]
# [9] = test system: post-menopausal women; experiment: GSM symptom: vaginal pain associated with sexual activity; type: in vivo
# Experimental: as §1
# • d) Vaginal pain associated with sexual activity (sensation of pain with sexual intercourse none=0, mild=1, moderate=2 or severe=3): […]
# [10] = test system: post-menopausal women; experiment: GSM symptom (VVA self-assessment): vaginal dryness; type: in vivo
# Experimental: Change from baseline to week 12 in the following GSM symptoms (VVA subject self-assessment) were recorded: • a) Vaginal dryness (sensation of dryness or burning in the vagina; none=0 mild=1, moderate=2 or severe=3): […]
compound,measurement,setting,value
"C[C@]12CC[C@@H]3c4ccc(O)cc4CC[C@H]3[C@@H]1[C@@H](O)[C@@H](O)[C@@H]2O [Estetrol, 1,3,5 (10)-estratrien-3,15alpha,16alpha,17beta-tetrol]","Lipid parameters (triglycerides, cholesterol, HDL, LDL) and glucose level",[1],do not behave significantly differently
same,Mean number of hot flushes and sweating,[2],decrease
same,"Bone resorption (CTX-1), decrease compared with 15 mg daily dose","[3]; 20 mg daily dose, after 28 days of treatment",more pronounced
same,"C-Terminal Telopeptide (CTX-1), Baseline, Mean",[3]; E4 15 mg daily,416.0 ng/L
same,"C-Terminal Telopeptide (CTX-1), Baseline, Median",[3]; E4 15 mg daily,339.0 ng/L
same,"C-Terminal Telopeptide (CTX-1), End Of Treatment Actual Change from Baseline, Mean","[3]; E4 15 mg daily, after 12 weeks",-95.0 ng/L
same,"C-Terminal Telopeptide (CTX-1), End Of Treatment Actual Change from Baseline, Median","[3]; E4 15 mg daily, after 12 weeks",-142.5 ng/L
same,"C-Terminal Telopeptide (CTX-1), End Of Treatment Actual Value, Mean","[3]; E4 15 mg daily, after 12 weeks",320.9 ng/L
same,"C-Terminal Telopeptide (CTX-1), End Of Treatment Actual Value, Median","[3]; E4 15 mg daily, after 12 weeks",197.5 ng/L
same,"C-Terminal Telopeptide (CTX-1), Baseline, Mean",[3]; E4 20 mg daily,422.50 ng/L
same,"C-Terminal Telopeptide (CTX-1), Baseline, Median",[3]; E4 20 mg daily,416.5 ng/L
same,"C-Terminal Telopeptide (CTX-1), End Of Treatment Actual Change from Baseline, Mean","[3]; E4 20 mg daily, after 28 days",-147.60 ng/L
same,"C-Terminal Telopeptide (CTX-1), End Of Treatment Actual Change from Baseline, Median","[3]; E4 20 mg daily, after 28 days",-138.0 ng/L
same,"C-Terminal Telopeptide (CTX-1), End Of Treatment Actual Value, Mean","[3]; E4 20 mg daily, after 28 days",274.9 ng/L
same,"C-Terminal Telopeptide (CTX-1), End Of Treatment Actual Value, Median","[3]; E4 20 mg daily, after 28 days",267.50 ng/L
same,"Relative change (% from baseline) in hot flush weekly weighted score, mean","[4]; 10 mg per day, week 0",0%
same,"Relative change (% from baseline) in hot flush weekly weighted score, mean (section B analysis)","[4]; 10 mg per day, week 0",0%
same,"Relative change (% from baseline) in hot flush weekly weighted score, mean (section B analysis)","[4]; 10 mg per day, week 1",−20%
same,"Relative change (% from baseline) in hot flush weekly weighted score, mean (section B analysis)","[4]; 10 mg per day, week 2",−34%
same,"Relative change (% from baseline) in hot flush weekly weighted score, mean (section B analysis)","[4]; 10 mg per day, week 3",−46%
same,"Relative change (% from baseline) in hot flush weekly weighted score, mean (section B analysis)","[4]; 10 mg per day, week 4",−53%
same,"Relative change (% from baseline) in hot flush weekly weighted score, mean (section B analysis)","[4]; 10 mg per day, week 5",−57%
same,"Relative change (% from baseline) in hot flush weekly weighted score, mean (section B analysis)","[4]; 10 mg per day, week 6",−62%
same,"Relative change (% from baseline) in hot flush weekly weighted score, mean (section B analysis)","[4]; 10 mg per day, week 7",−64%
same,"Relative change (% from baseline) in hot flush weekly weighted score, mean (section B analysis)","[4]; 10 mg per day, week 8",−66%
same,"Relative change (% from baseline) in hot flush weekly weighted score, mean (section B analysis)","[4]; 10 mg per day, week 9",−66%
same,"Relative change (% from baseline) in hot flush weekly weighted score, mean (section B analysis)","[4]; 10 mg per day, week 10",−68%
same,"Relative change (% from baseline) in hot flush weekly weighted score, mean (section B analysis)","[4]; 10 mg per day, week 11",−68%
same,"Relative change (% from baseline) in hot flush weekly weighted score, mean (section B analysis)","[4]; 10 mg per day, week 12",−69%
same,"Relative change (% from baseline) in hot flush weekly weighted score, mean","[4]; 15 mg per day, week 0",0%
same,"Relative change (% from baseline) in hot flush weekly weighted score, mean (section B analysis)","[4]; 15 mg per day, week 0",0%
same,"Relative change (% from baseline) in hot flush weekly weighted score, mean (section B analysis)","[4]; 15 mg per day, week 1",−22%
same,"Relative change (% from baseline) in hot flush weekly weighted score, mean (section B analysis)","[4]; 15 mg per day, week 2",−45%
same,"Relative change (% from baseline) in hot flush weekly weighted score, mean (section B analysis)","[4]; 15 mg per day, week 3",−56%
same,"Relative change (% from baseline) in hot flush weekly weighted score, mean (section B analysis)","[4]; 15 mg per day, week 4",−66%
same,"Relative change (% from baseline) in hot flush weekly weighted score, mean (section B analysis)","[4]; 15 mg per day, week 5",−70%
same,"Relative change (% from baseline) in hot flush weekly weighted score, mean (section B analysis)","[4]; 15 mg per day, week 6",−72%
same,"Relative change (% from baseline) in hot flush weekly weighted score, mean (section B analysis)","[4]; 15 mg per day, week 7",−75%
same,"Relative change (% from baseline) in hot flush weekly weighted score, mean (section B analysis)","[4]; 15 mg per day, week 8",−76%
same,"Relative change (% from baseline) in hot flush weekly weighted score, mean (section B analysis)","[4]; 15 mg per day, week 9",−78%
same,"Relative change (% from baseline) in hot flush weekly weighted score, mean (section B analysis)","[4]; 15 mg per day, week 10",−77%
same,"Relative change (% from baseline) in hot flush weekly weighted score, mean (section B analysis)","[4]; 15 mg per day, week 11",−79%
same,"Relative change (% from baseline) in hot flush weekly weighted score, mean (section B analysis)","[4]; 15 mg per day, week 12",−81%
same,Endometrial thickness,[5]; 2 mg estetrol per day,stable
same,Endometrial thickness,[5]; 10 mg estetrol per day,increasing
same,"Vaginal and/or vulvar irritation/itching score (none=0 to severe=3), mean ± SD","[6]; E4 2.5 mg, Baseline",0.7 ± 0.96
same,"Vaginal and/or vulvar irritation/itching score (none=0 to severe=3), mean ± SD","[6]; E4 2.5 mg, Week 12",0.3 ± 0.60
same,"Vaginal and/or vulvar irritation/itching score (none=0 to severe=3), mean ± SD","[6]; E4 5 mg, Baseline",0.6 ± 0.90
same,"Vaginal and/or vulvar irritation/itching score (none=0 to severe=3), mean ± SD","[6]; E4 5 mg, Week 12",0.4 ± 0.65
same,"Vaginal and/or vulvar irritation/itching score (none=0 to severe=3), mean ± SD","[6]; E4 10 mg, Baseline",0.7 ± 0.87
same,"Vaginal and/or vulvar irritation/itching score (none=0 to severe=3), mean ± SD","[6]; E4 10 mg, Week 12",0.3 ± 0.64
same,"Vaginal and/or vulvar irritation/itching score (none=0 to severe=3), mean ± SD","[6]; E4 15 mg, Baseline",0.5 ± 0.85
same,"Vaginal and/or vulvar irritation/itching score (none=0 to severe=3), mean ± SD","[6]; E4 15 mg, Week 12",0.4 ± 0.70
same,Percentage of patients with TEAE leading to Study Discontinuation,[7]; 2.5 mg group,1.9%
same,Percentage of patients with severe TEAE,[7]; 2.5 mg group,7.7%
same,Percentage of patients with TEAE leading to Study Discontinuation,[7]; 5 mg group,6.4%
same,Percentage of patients with severe TEAE,[7]; 5 mg group,10.6%
same,Average AEs per patient (patients who had AEs),[7]; 10 mg group,3.2
same,Percentage of patients with TEAE leading to Study Discontinuation,[7]; 10 mg group,5.6%
same,Percentage of patients with severe TEAE,[7]; 10 mg group,7.4%
same,Average AEs per patient (patients who had AEs),[7]; 15 mg group,2.6
same,Percentage of patients with TEAE leading to Study Discontinuation,[7]; 15 mg group,4.1%
same,Percentage of patients with severe TEAE,[7]; 15 mg group,6.1%
same,"Dysuria score (none=0 to severe=3), mean ± SD","[8]; E4 2.5 mg, Baseline",0.2 ± 0.56
same,"Dysuria score (none=0 to severe=3), mean ± SD","[8]; E4 2.5 mg, Week 12",0 ± 0.19
same,"Dysuria score (none=0 to severe=3), mean ± SD","[8]; E4 5 mg, Baseline",0.2 ± 0.56
same,"Dysuria score (none=0 to severe=3), mean ± SD","[8]; E4 5 mg, Week 12",0 ± 0.20
same,"Dysuria score (none=0 to severe=3), mean ± SD","[8]; E4 10 mg, Baseline",0.2 ± 0.58
same,"Dysuria score (none=0 to severe=3), mean ± SD","[8]; E4 10 mg, Week 12",0.1 ± 0.23
same,"Dysuria score (none=0 to severe=3), mean ± SD","[8]; E4 15 mg, Baseline",0.3 ± 0.58
same,"Dysuria score (none=0 to severe=3), mean ± SD","[8]; E4 15 mg, Week 12",0.3 ± 0.61
same,"Vaginal pain associated with sexual activity score (none=0 to severe=3), mean ± SD","[9]; E4 2.5 mg, Baseline",0.6 ± 0.77
same,"Vaginal pain associated with sexual activity score (none=0 to severe=3), mean ± SD","[9]; E4 2.5 mg, Week 12",0.3 ± 0.73
same,"Vaginal pain associated with sexual activity score (none=0 to severe=3), mean ± SD","[9]; E4 5 mg, Baseline",1 ± 1.07
same,"Vaginal pain associated with sexual activity score (none=0 to severe=3), mean ± SD","[9]; E4 5 mg, Week 12",0.5 ± 0.78
same,"Vaginal pain associated with sexual activity score (none=0 to severe=3), mean ± SD","[9]; E4 10 mg, Baseline",0.6 ± 0.77
same,"Vaginal pain associated with sexual activity score (none=0 to severe=3), mean ± SD","[9]; E4 10 mg, Week 12",0.2 ± 0.36
same,"Vaginal pain associated with sexual activity score (none=0 to severe=3), mean ± SD","[9]; E4 15 mg, Baseline",0.7 ± 0.90
same,"Vaginal pain associated with sexual activity score (none=0 to severe=3), mean ± SD","[9]; E4 15 mg, Week 12",0.3 ± 0.54
same,"Vaginal dryness score (none=0 to severe=3), mean ± SD","[10]; E4 2.5 mg, Baseline",1 ± 0.90
same,"Vaginal dryness score (none=0 to severe=3), mean ± SD","[10]; E4 2.5 mg, Week 12",0.5 ± 0.77
same,"Vaginal dryness score (none=0 to severe=3), mean ± SD","[10]; E4 5 mg, Baseline",1.3 ± 0.94
same,"Vaginal dryness score (none=0 to severe=3), mean ± SD","[10]; E4 5 mg, Week 12",0.7 ± 0.86
same,"Vaginal dryness score (none=0 to severe=3), mean ± SD","[10]; E4 10 mg, Baseline",1 ± 0.93
same,"Vaginal dryness score (none=0 to severe=3), mean ± SD","[10]; E4 10 mg, Week 12",0.5 ± 0.75
same,"Vaginal dryness score (none=0 to severe=3), mean ± SD","[10]; E4 15 mg, Baseline",1.1 ± 1.04
same,"Vaginal dryness score (none=0 to severe=3), mean ± SD","[10]; E4 15 mg, Week 12",0.5 ± 0.68
